The record followed here is patent US20040171688A1, “Carboxylic acids and derivatives thereof and pharmaceutical compositions containing them” (priority 1997, published 2004).

pEC50: −log10 of the molar value. “Also recorded” adds a separate entry of the source.

For experiment [1], the target named is T1, HNF-4α (Rattus norvegicus, UniProt P22449).
T1 sequence (P22449 1-464 isoform P22449-2): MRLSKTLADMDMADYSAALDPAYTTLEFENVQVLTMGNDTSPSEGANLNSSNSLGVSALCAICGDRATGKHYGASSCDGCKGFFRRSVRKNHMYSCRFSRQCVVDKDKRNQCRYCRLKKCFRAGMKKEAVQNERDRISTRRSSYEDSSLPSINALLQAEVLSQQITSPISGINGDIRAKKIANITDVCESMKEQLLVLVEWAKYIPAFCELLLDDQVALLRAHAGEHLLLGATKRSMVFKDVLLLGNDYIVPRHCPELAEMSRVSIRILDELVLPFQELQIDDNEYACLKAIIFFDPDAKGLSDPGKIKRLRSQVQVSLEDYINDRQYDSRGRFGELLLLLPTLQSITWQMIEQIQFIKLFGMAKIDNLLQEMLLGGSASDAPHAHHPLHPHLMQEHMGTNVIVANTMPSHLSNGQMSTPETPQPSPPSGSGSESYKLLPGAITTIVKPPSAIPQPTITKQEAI
Briefly: Gel mobility shift assay: His-HNF-4α binding to C3P apo CIII promoter oligonucleotide. It is filed as biochemical. Also noted: The full length HNF-4α1 cDNA cloned into 6His-pET11d vector was expressed in E.coli BL21 (DE3)plysS; 6His; made in house; host or cells: E. coli BL21 (DE3)plysS. The following applies: for effect on His-HNF-4α binding to C3P oligonucleotide: gel mobility shift, 10 μM acyl-CoA (FIG. 2). On the procedure:
a. His-HNF-4I (14 ng) binding to C3P in the absence (lane 1) or presence of 10 μM each of myristoyl(14:0)-CoA (lane 2) or palmitoyl(16:0)-CoA (lane 3).
b. His-HNF-4I (20 ng) binding to C3P in the absence (lane 1) or presence of 10 μM each of stearoyl(18:0)-CoA (lane 2) or linolenoyl(18:3, w-3)-CoA (lane 3).
c. Activation of His-HNF-4I (14 ng) binding to C3P by increasing concentrations of myristoyl(14:0)-CoA. The gel section containing radiolabeled C3P bound to His-HNF-4I dimer is shown.
His-HNF-4α and acyl-CoA (as indicated) were preincubated for 30 min at 22° C. in 11 mM Hepes (pH 7.9) containing 50 mM KCl, 1 mM dithiothreitol. 2.5 mM MgCl2, 10% glycerol, 1 μg of poly(dI-dC) in a final volume of 20 μl. ^32P-labeled oligonucleotide (0.1 ng) consisting of the human C3P apo CIII promoter sequence,(−87/−66)^6 was then added, and incubation was continued for an additional 15 min. Protein-DNA complexes were resolved by 5% nondenaturing polyacrylamide gel in 0.6×TBE and quantitated by PhosphorImager analysis.
HNF-4α activity as a function of binding of long chain acyl-CoAs was evaluated by studying the binding of HNF-4α to its cognate C3P element of the apo CIII promoter sequence (−87/−66)^6 in the presence or absence of added acyl-CoAs of variable chain length, degree of saturation, and degree of substitution. Binding was verified by using a gel mobility shift assay. […] Activation was concentration dependent and maximal in the presence of myristoyl(14:0)-CoA added within a concentration range required for its binding to HNF-4α.

Experiment [2] has as its target T2, HNF-4α (Rattus norvegicus, UniProt P22449).
T2 construct: GST-HNF-4α(LBD) fusion protein consisting of amino acids 96-455 of wild type HNF-4α fused to GST; fused on or other part: Glutathione-S-transferase (GST) at the N-terminus of the LBD construct; 6-histidine tag on the full-length construct
T2 sequence (P22449 105-464 isoform P22449-2 limits assumed): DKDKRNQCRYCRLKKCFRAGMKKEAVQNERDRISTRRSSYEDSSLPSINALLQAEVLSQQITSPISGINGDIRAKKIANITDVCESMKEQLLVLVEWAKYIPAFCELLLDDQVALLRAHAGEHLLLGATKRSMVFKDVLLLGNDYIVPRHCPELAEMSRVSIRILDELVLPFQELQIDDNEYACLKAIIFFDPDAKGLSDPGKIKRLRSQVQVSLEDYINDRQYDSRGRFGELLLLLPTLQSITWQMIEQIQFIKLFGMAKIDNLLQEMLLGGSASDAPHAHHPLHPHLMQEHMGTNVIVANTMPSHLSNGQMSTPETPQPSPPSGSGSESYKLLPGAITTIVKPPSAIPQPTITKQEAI
Description: Ligand binding assay with [3H]palmitoyl(16:0)-CoA on recombinant GST-HNF-4α(LBD) or His-HNF-4α. The following applies: competition with 8 nM [3H]palmitoyl(16:0)-CoA; GST-HNF-4α(LBD) or His-HNF-4α; read-out: EC50 (50% specific competition). Here is the method: a. […] The respective recombinant proteins are incubated to equilibrium with [^3H]palmitoyl(16:0)-CoA (0.05 μCi) and with increasing nonlabeled palmitoyl(16:0)-CoA as indicated.
b. […] The respective recombinant proteins are incubated with 8 nM of [^3H]palmitoyl(16:0)-CoA (60 Ci/mmol) and with increasing nonlabeled myristoyl(14:0)-CoA as indicated. Percent bound refers to radiolabeled [^3H]palmitoyl(16:0)-CoA in the bound fraction. […] Percent bound refers to radiolabeled [^3H]palmitoyl(16:0)-CoA in the bound fraction.
Rat HNF-4α1 cDNA(pLEN4S)^1 was subcloned into the glutathione-S-transferase (GST) encoding pGEX-2T plasmid (Pharmacia) and the resultant plasmid was cleaved with smaI and AccI and religated to yield the GST-HNF-4α(LBD) fusion plasmid. […] The full length HNF-4α1 cDNA cloned into 6His-pET11d vector was expressed in E.coli BL21 (DE3)plysS.
Recombinant GST-HNF-4α(LBD) (100 pmol) or His-HNF-4α (100 pmol) were incubated for 60 min at 22° C. with [^3H]palmitoyl(16:0)-CoA (American RadiolabeledChemicals) in 100 μl of 10 mM phosphate buffer (pH 7.4). Competitor ligands or solvent carrier were added as indicated. Free and HNF-4α bound ^3[H]palmitoyl(16:0)-CoA were separated by […] and bound ligand was quantified by liquid scintillation counting. Nonspecific binding of [^3H]palmitoyl(16:0)-CoA was determined by its binding to the GST moiety or to carbonic anhydrase as nonrelevant protein.
Binding was exemplified with either the ligand binding domain of HNF-4α fused to glutathione-s-transferase (GST-HNF-4α(LBD)) or the full length HNF-4α protein tagged by 6 histidines (His-HNF-4α).

A word on the pEC50: it is the negative decadic logarithm of the EC50, by convention in mol/L.

`CCCCCCCCCCCCCC(=O)SCCNC(=O)CCNC(=O)[C@H](O)C(C)(C)COP(=O)(O)OP(=O)(O)OC[C@H]1O[C@@H](n2cnc3c(N)ncnc32)[C@H](O)[C@@H]1OP(=O)(O)O` [myristoyl(14:0)-CoA, reference compound]: in experiment [1], the “effect on His-HNF-4α binding to C3P oligonucleotide” value was “Activation; also recorded: maximal”. Besides, in experiment [2], the pEC50 is 5.85.
Turning to `CCCCCCCCCCCCCCCCCC(=O)SCCNC(=O)CCNC(=O)[C@H](O)C(C)(C)COP(=O)(O)OP(=O)(O)OC[C@H]1O[C@@H](n2cnc3c(N)ncnc32)[C@H](O)[C@@H]1OP(=O)(O)O` [Stearoyl(18:0)-CoA], the “effect on His-HNF-4α binding to C3P oligonucleotide” value in experiment [1] is on record as “potent inhibition”. Also, the “direct effect on HNF-4α (summary)” value in experiment [1] (summary statement of Example 4) is listed as “antagonistic effect”. In addition, in experiment [2], the pEC50 is 5.57.
